Experimental findings from ChEMBL document CHEMBL1201862, “PubChem BioAssay data set” (2004) are described below.

Each structure is given as a SMILES string.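 48-hour exposure; five concentrations; linearly interpolated endpoints. GI50 marks 50% less growth.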 Activity calls are given as the source filed them. Rule as the data show it: active = GI50 up to about 1.1 µM and inactive = higher. Bounds are passed on as bounds.

Some test systems named below: HCT-116; UO-31; SF-268; A498; EKVX; RPMI-8226; HOP-62; HT-29; SR; RXF 393; NCI-H522; UACC-257; KM12; LOX IMVI; HL-60; SN12C; SK-MEL-5; NCI-H460; COLO 205; CCRF-CEM.
Common to all, as to test: growth of human tumour cells (NCI), 48 h

In the case of `Cc1cc(=O)oc2cc(OC(=O)N(C)C)c(Cl)cc12`, the GI50 is > 100 µM (inactive) in the assay with HCT-116; > 100 µM (inactive) in the assay on UO-31; 86.5 µM (inactive) in the assay with SF-268; > 100 µM (inactive) in the assay on A498; > 100 µM (inactive) with EKVX; > 100 µM (inactive) with RPMI-8226. Further, the GI50 with HOP-62 is 25.1 µM (inactive); in the assay with HT-29 it was > 100 µM (inactive); in the assay on SR it was > 100 µM (inactive); in the assay on RXF 393, 2 µM (inactive); in the assay on NCI-H522, 57.7 µM (inactive); in the assay on UACC-257 it was 80.5 µM (inactive). The GI50 in the assay with KM12 was > 100 µM (inactive); in the assay with LOX IMVI it was 85.5 µM (inactive); in the assay with HL-60 it was 54 µM (inactive); in the assay on SN12C, > 100 µM (inactive); in the assay with SK-MEL-5, 76 µM (inactive); with NCI-H460 it was > 100 µM (inactive). Moreover, the GI50 in the assay with COLO 205 is 95.9 µM (inactive); with CCRF-CEM it was > 100 µM (inactive).

Take `Clc1cccc(/N=C/C=C/Nc2cccc(Cl)c2)c1`: the GI50 in the assay on HCT-116 is 15 µM (inactive); in the assay on UO-31, 16 µM (inactive); with SF-268 it was > 10 µM (inactive); with A498 it was 22.9 µM (inactive); with EKVX, > 10 µM (inactive); with RPMI-8226, 27.2 µM (inactive). Also, the GI50 with HOP-62 was 16.8 µM (inactive); in the assay with HT-29 it was 16.7 µM (inactive); in the assay on SR, 24.2 µM (inactive); with RXF 393, 20.8 µM (inactive); with NCI-H522, 14.8 µM (inactive); with UACC-257, 16.6 µM (inactive). Further, the GI50 with KM12 is 14.1 µM (inactive); in the assay on LOX IMVI, 6.32 µM (inactive); in the assay on HL-60, 18.9 µM (inactive); in the assay with SN12C, 14 µM (inactive); in the assay on SK-MEL-5, 16.8 µM (inactive); in the assay with NCI-H460 it was 17.7 µM (inactive). The figures for the GI50 in the assay with COLO 205 and with CCRF-CEM were 16.3 µM (inactive) and > 10 µM (inactive), respectively.

On to `COc1c(O)c(O)c2c(c1O)C(=O)c1cc(C)cc(O)c1C2=O`, for which the GI50 is 32.8 µM (inactive) in the assay with HCT-116; 23.1 µM (inactive) in the assay on UO-31; 30.2 µM (inactive) in the assay on SF-268; 49.2 µM (inactive) with A498; 22.4 µM (inactive) in the assay on EKVX; 35.2 µM (inactive) in the assay with RPMI-8226. The GI50 is 56.5 µM (inactive) in the assay on HOP-62; 24.4 µM (inactive) in the assay with HT-29; 31.6 µM (inactive) in the assay with SR; > 70.8 µM (inactive) with RXF 393; 6.07 µM (inactive) in the assay with NCI-H522; 48.3 µM (inactive) in the assay with UACC-257. In addition, the GI50 was 35.2 µM (inactive) in the assay on KM12; 24.1 µM (inactive) with LOX IMVI; 50 µM (inactive) in the assay with HL-60; 50.7 µM (inactive) in the assay on SN12C; 29.9 µM (inactive) in the assay with SK-MEL-5; 18.7 µM (inactive) in the assay on NCI-H460. Also, the figures for the GI50 in the assay on COLO 205 and with CCRF-CEM were 24.5 µM (inactive) and 33.3 µM (inactive), respectively.

`Cc1cc(S(=O)(=O)Nc2nc(N)nc(N(C)C)n2)c(SC(C(=O)O)c2ccccc2)cc1Cl` (stereo not given): the GI50 in the assay on HCT-116, in the assay on UO-31, with SF-268, in the assay on A498, in the assay on EKVX and with RPMI-8226 was > 10 µM (inactive) in each case. The GI50 in the assay with HOP-62, in the assay with HT-29, in the assay with SR, in the assay with RXF 393, with NCI-H522 and with UACC-257 was > 10 µM (inactive) each time. The GI50 in the assay with KM12, in the assay with LOX IMVI, with HL-60, in the assay with SN12C, in the assay on SK-MEL-5 and in the assay with NCI-H460 was > 10 µM (inactive) throughout. The GI50 with COLO 205 and in the assay with CCRF-CEM was > 10 µM (inactive) each time.

Consider `CN(C)CCNc1ccc2nnn3c4ccc(Cl)cc4c(=O)c1c23`, for which the GI50 in the assay with HCT-116 is 1.48 µM (inactive); with UO-31 it was 1.56 µM (inactive); with SF-268, 3.4 µM (inactive); in the assay on A498 it was 2.8 µM (inactive); in the assay on EKVX it was 4.45 µM (inactive); in the assay with RPMI-8226, 2.92 µM (inactive). The GI50 in the assay with HOP-62 is 4.18 µM (inactive); with HT-29, 1.88 µM (inactive); with SR, 1.33 µM (inactive); in the assay with RXF 393, 3.15 µM (inactive); with NCI-H522 it was 2.49 µM (inactive); with UACC-257 it was 5.19 µM (inactive). The GI50 was 4.54 µM (inactive) in the assay on KM12; 1.6 µM (inactive) in the assay with LOX IMVI; 4.73 µM (inactive) in the assay on HL-60; 2.36 µM (inactive) in the assay with SN12C; 2.94 µM (inactive) with SK-MEL-5; 2.48 µM (inactive) in the assay with NCI-H460. Also, the GI50 is 1.18 µM (inactive) with COLO 205 and 4.62 µM (inactive) in the assay on CCRF-CEM.

For `Nc1nc(N)c(CCCCc2ccccc2)c(N)n1`, the GI50 with HCT-116 was > 100 µM (inactive); in the assay on UO-31, > 100 µM (inactive); in the assay on SF-268, > 100 µM (inactive); with A498 it was > 100 µM (inactive); in the assay on EKVX it was > 42.8 µM (inactive); in the assay on RPMI-8226, > 100 µM (inactive). In addition, the GI50 in the assay with HOP-62, in the assay with HT-29, in the assay on SR, with RXF 393, with NCI-H522 and in the assay with UACC-257 was > 100 µM (inactive) throughout. For the same molecule, the GI50 with KM12, in the assay with LOX IMVI, in the assay on HL-60, in the assay on SN12C, in the assay with SK-MEL-5 and with NCI-H460 was > 100 µM (inactive) throughout. In addition, the GI50 with COLO 205 and with CCRF-CEM was > 100 µM (inactive) each time.

For the molecule `CC(NC(=O)/C(C#N)=C/c1ccc2[nH]ccc2c1)c1ccccc1` (stereo not given), the GI50 in the assay on HCT-116 is 14.9 µM (inactive); with UO-31, 14.7 µM (inactive); with SF-268 it was 21.5 µM (inactive); in the assay with A498, 16.5 µM (inactive); with EKVX, 22 µM (inactive); in the assay on RPMI-8226, 21.6 µM (inactive). The GI50 with HOP-62 is 18.2 µM (inactive); with HT-29, 17.5 µM (inactive); with SR, 24.2 µM (inactive); in the assay with RXF 393 it was 19.3 µM (inactive); with NCI-H522 it was 12.8 µM (inactive); with UACC-257, 21.3 µM (inactive). Besides, the GI50 with KM12 is 17.3 µM (inactive); with LOX IMVI it was 16.4 µM (inactive); in the assay on HL-60 it was 18.7 µM (inactive); with SN12C, 18.7 µM (inactive); with SK-MEL-5, 18.2 µM (inactive); with NCI-H460 it was 18.4 µM (inactive). The GI50 was 17.1 µM (inactive) in the assay with COLO 205 and 17.5 µM (inactive) in the assay on CCRF-CEM.

With `COc1cc(C(=O)N[C@H]2CCc3cc(OC)c(OC)c(OC)c3-c3ccc(SC)c(=O)cc32)cc(OC)c1OC`, the GI50 with HCT-116 was 0.00857 µM (active); in the assay with UO-31 it was 0.019 µM (active); with SF-268, 0.0218 µM (active); in the assay on A498, 0.0403 µM (active); in the assay on EKVX, 0.0106 µM (active); with RPMI-8226 it was 0.0115 µM (active). Further, the GI50 in the assay with HOP-62 was 0.0121 µM (active); with HT-29 it was 0.00641 µM (active); with SR, 0.0126 µM (active); in the assay on RXF 393, 0.00752 µM (active); in the assay on NCI-H522 it was 0.00428 µM (active); in the assay with UACC-257 it was 0.0586 µM (active). Besides, the GI50 in the assay with KM12 was 0.0025 µM (active); with LOX IMVI, 0.00603 µM (active); in the assay with HL-60, 0.00847 µM (active); in the assay on SN12C, 0.0204 µM (active); in the assay with SK-MEL-5, 0.0132 µM (active); in the assay with NCI-H460 it was 0.00615 µM (active). Moreover, the results for the GI50 in the assay with COLO 205 and in the assay on CCRF-CEM were 0.0342 µM (active) and 0.00705 µM (active), respectively.

For the molecule `N#C/N=C(/NCc1ccccc1)N(Cc1ccccc1)Cc1ccccc1`, the GI50 is 17.8 µM (inactive) with HCT-116; 16.4 µM (inactive) in the assay on UO-31; 22.2 µM (inactive) with SF-268; > 10 µM (inactive) in the assay on A498; > 10 µM (inactive) in the assay on EKVX; 22.9 µM (inactive) in the assay on RPMI-8226. Further, the GI50 in the assay with HOP-62 was > 31.6 µM (inactive); in the assay on HT-29, > 10 µM (inactive); in the assay on SR, 24.8 µM (inactive); in the assay with RXF 393 it was 27.7 µM (inactive); in the assay with NCI-H522 it was 15.1 µM (inactive); in the assay with UACC-257 it was > 10 µM (inactive). Besides, the GI50 with KM12 was 27.6 µM (inactive); in the assay on LOX IMVI it was 19.2 µM (inactive); in the assay with HL-60 it was 16.8 µM (inactive); in the assay with SN12C, 25.2 µM (inactive); in the assay on SK-MEL-5, 14.9 µM (inactive); in the assay with NCI-H460, 19.6 µM (inactive). Besides, the GI50 is > 10 µM (inactive) in the assay on COLO 205 and 16.1 µM (inactive) in the assay with CCRF-CEM.

In the case of `CC(=N\N)/C(C)=N/N=C(C)/C(C)=N/N=C(C)/C(C)=N/N=C(C)/C(C)=N/N`, the GI50 in the assay on HCT-116, with UO-31, in the assay with SF-268, with A498, in the assay with EKVX and in the assay with RPMI-8226 was > 100 µM (inactive) throughout. The GI50 in the assay with HOP-62 was > 100 µM (inactive); with HT-29, > 100 µM (inactive); in the assay on SR, 0.248 µM (active); with RXF 393 it was > 100 µM (inactive); with NCI-H522 it was > 100 µM (inactive); in the assay on UACC-257 it was > 100 µM (inactive). Besides, the GI50 with KM12, with LOX IMVI, with HL-60, with SN12C, with SK-MEL-5 and with NCI-H460 was > 100 µM (inactive) throughout. Besides, the GI50 in the assay with COLO 205 and with CCRF-CEM was > 100 µM (inactive) each time.
